Where two headings read alike, the source gives them in different places.
Assays:
[1] = Serum stability of prodrugs (hydrolysis by human serum); type: in vitro ADME; conditions: 37° C.
Procedure: (§1) Prodrug strategy is one of the ways to achieve or increase oral bioavailability of therapeutic drugs. Compound 13 was used as template a for various ester prodrugs. After a prodrug molecule is absorbed into systemic circulation, the prodrug molecule can be hydrolyzed in the blood to release the active form. The hydrolysis of several prodrugs by rat and human serum were evaluated.
(§2) For all stability experiments the test compounds are treated with rat or human serum in Eppendorf tubes. One example of the testing procedures includes: 992 μl of serum was prewarmed at 37° C. for 2 minutes and then 8 μl of a compound (at 5 mg/ml, 125×) was added to get a final concentration of 40 μg/ml and immediately mixed. Alternatively, serum stability can be tested at 1 mg/ml. […] After vortexing for 30 seconds, the tube was centrifuged in a microcentrifuge for 10 minutes at 15K rpm. Next, 100 μl of the supernatant was combined with 600 μl of water and injected on LC-MS using 0.1% formic acid in water for mobile phase A and 0.1% formic acid in methanol for mobile phase B on an ACE 5 C18 2.1×100 mm column with a 10 μL injection. The flow rate and gradient are adjusted as needed to give the desired resolution and run time. The pH of the mobile phase is adjusted if needed to improve the chromatography.
(§3) The time course of both the disappearance of a prodrug and the appearance of the active form of that prodrug is presented in Table 9a and Table 9b.

[2] = Serum stability of prodrugs (hydrolysis by rat serum); type: in vitro ADME; conditions: 37° C.
Procedure: as §1, §2, §3

SHV-5 ec308 [3] = experiment: Aztreonam potentiation (MPC@4); type: cell-based; conditions: minimum BLI concentration inhibiting growth with 4 μg/mL aztreonam
KPC-2 KP1004 = experiment: Aztreonam potentiation (MPC@4); type: cell-based; conditions: minimum BLI concentration inhibiting growth with 4 μg/mL aztreonam
ECL1002 [4] = experiment: Aztreonam potentiation (MPC@4); type: cell-based; conditions: minimum BLI concentration inhibiting growth with 4 μg/mL aztreonam
CTX-M-14 KP1005 = type: cell-based
CTX-M-15 KP1009 = type: cell-based
SHV-5 ec308 [5] = type: cell-based; conditions: minimum BLI concentration inhibiting growth with tigemonam at 4 μg/mL
ECL1002 [6] = type: cell-based; conditions: minimum BLI concentration inhibiting growth with tigemonam at 4 μg/mL
KP1004 KPC-2 = experiment: Biapenem potentiation (MPC@1); type: cell-based; conditions: minimum BLI concentration inhibiting growth with 1 μg/mL biapenem
Procedure: (§4) Biapenem was present in the test medium at 1 μg/mL. […] Table 3 summarizes the BLI potency of biapenem potentiation (MPC@1) for two strains overexpressing class A (KPC) and class D (OXA-48) carbapenemases. Biapenem MIC for each strain is also shown.

OXA-48 KP1086 = experiment: Biapenem potentiation (MPC@1); type: cell-based; conditions: minimum BLI concentration inhibiting growth with 1 μg/mL biapenem
Procedure: as §4

SHV-12 = SHV-12 (Klebsiella pneumoniae, UniProt P0AD64, E235K/G234S/L31Q); experiment: Inhibition of nitrocefin cleavage by purified enzyme (Ki); type: biochemical; conditions: nitrocefin reporter substrate, 10 min preincubation; read-out: Ki (SHV-12, NCF)
SHV-12, sequence (P0AD64 22-286 L31Q/G234S/E235K): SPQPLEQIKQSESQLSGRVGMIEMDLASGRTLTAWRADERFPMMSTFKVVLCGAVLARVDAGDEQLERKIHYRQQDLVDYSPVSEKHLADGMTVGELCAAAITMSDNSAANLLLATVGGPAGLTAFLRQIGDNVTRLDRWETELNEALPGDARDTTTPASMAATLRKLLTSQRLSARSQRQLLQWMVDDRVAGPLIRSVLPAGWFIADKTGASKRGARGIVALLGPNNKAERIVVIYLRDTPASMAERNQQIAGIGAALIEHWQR
Procedure: Purified enzymes were mixed with various concentrations of inhibitors in reaction buffer and incubated for 10 min at room temperature. Nitrocefin was added and substrate cleavage profiles were recorded at 490 nm every 10 sec for 10 min.

[7] = Intravenous pharmacokinetics; type: in vivo; conditions: rat, plasma, rats, IV infusion over 0.5 hours, read-out: Free Cl (converted)
Procedure: Rats (n=3 per compound) were administered by a single infusion. IV doses were infused over 0.5 hours via an indwelling femoral vein cannula. Plasma (˜0.3 mL) samples were collected from each rat at designated time points up to 24 hours. Blood samples were centrifuged within 5 min of collection at 12000 g for 5 min to obtain plasma. The plasma samples were stored at −80° C. until analyzed. Data were analyzed using WinNonlin.

[8] = minimum BLI concentration inhibiting growth with tigemonam at 4 μg/mL

Row | Measured Initial Conc. in Serum (prodrug) [1] | Conc. at t = 2 hr (prodrug) [1] | Conc. at t = 4 hr (prodrug) [1] | Measured Initial Conc. in Serum (prodrug) [2] | Conc. at t = 2 hr (prodrug) [2] | Conc. at t = 4 hr (prodrug) [2] | Compound | AZT MPC4 SHV-5 ec308 (SHV-5 ec308 [3]) | AZT MPC4 KPC-2 KP1004 (KPC-2 KP1004) | AZT MPC4 ECL1002 (ECL1002 [4]) | TIG MPC4 CTX-M-14 KP1005 (CTX-M-14 KP1005) | TIG MPC4 CTX-M-15 KP1009 (CTX-M-15 KP1009) | TIG MPC4 SHV-5 ec308 (SHV-5 ec308 [5]) | TIG MPC4 ECL1002 (ECL1002 [6]) | BPM MPC1 KP1004 KPC-2 (KP1004 KPC-2) | BPM MPC1 OXA-48 KP1086 (OXA-48 KP1086) | Ki (SHV-12) | clearance ([7]; dose 20 mg/kg) | clearance ([7]; dose 10 mg/kg) | TIG MPC4 CTX-M-14 KP1005 (CTX-M-14 KP1005; [8]) | TIG MPC4 CTX-M-15 KP1009 (CTX-M-15 KP1009; [8])
1 | 1860 µg/mL | 1350 µg/mL | 1000 µg/mL | 1780 µg/mL | 1440 µg/mL | 1100 µg/mL | CSCC(=O)N[C@H]1Cc2cccc(C(=O)OCOC(=O)C(C)(C)C)c2OB1O [Compound 23, (R)-pivaloyloxymethyl 2-hydroxy-3-(2-(methylthio)acetamido)-3,4-dihydro-2H-benzo[e][1,2]oxaborinine-8-carboxylate] |  |  |  |  |  |  |  |  |  |  |  |  |  | 
2 |  |  |  |  |  |  | O=C(CSc1nncs1)N[C@H]1Cc2cccc(C(=O)O)c2OB1O [Compound 7, (R)-3-(2-(1,3,4-thiadiazol-2-ylthio)acetamido)-2-hydroxy-3,4-dihydro-2H-benzo[e][1,2]oxaborinine-8-carboxylic acid] | X (MIC of less than 1 μg/mL) | Y (MIC of 1 μg/mL to 10 μg/mL) | Y (MIC of 1 μg/mL to 10 μg/mL) | X (key: X: MIC of less than 1 μg/mL; Y: MIC of 1 μg/mL to 10 μg/mL; Z: MIC of greater than 10 μg/mL) | X (key: X: MIC of less than 1 μg/mL; Y: MIC of 1 μg/mL to 10 μg/mL; Z: MIC of greater than 10 μg/mL) | X (MIC of less than 1 μg/mL) | Y (MIC of 1 μg/mL to 10 μg/mL) | X (MIC of less than 1 μg/mL) | Y (MIC of 1 μg/mL to 10 μg/mL) | < 1 nM | 60.7 mL/min/kg |  |  | 
3 | 1790 µg/mL | 550 µg/mL | 240 µg/mL | 1660 µg/mL | 910 µg/mL | 330 µg/mL | CSCC(=O)N[C@H]1Cc2cccc(C(=O)OCOC(=O)OC(C)C)c2OB1O [Compound 24, (R)-(isopropoxycarbonyloxy)methyl 2-hydroxy-3-(2-(methylthio)acetamido)-3,4-dihydro-2H-benzo[e][1,2]oxaborinine-8-carboxylate] |  |  |  |  |  |  |  |  |  |  |  |  |  | 
4 |  |  |  |  |  |  | [N-]=[N+]=NCC(=O)N[C@H]1Cc2cccc(C(=O)O)c2OB1O [Compound 8, (R)-3-(2-azidoacetamido)-2-hydroxy-3,4-dihydro-2H-benzo[e][1,2]oxaborinine-8-carboxylic acid] | X (MIC of less than 1 μg/mL) | X (MIC of less than 1 μg/mL) | Y (MIC of 1 μg/mL to 10 μg/mL) | X (key: X: MIC of less than 1 μg/mL; Y: MIC of 1 μg/mL to 10 μg/mL; Z: MIC of greater than 10 μg/mL) | X (key: X: MIC of less than 1 μg/mL; Y: MIC of 1 μg/mL to 10 μg/mL; Z: MIC of greater than 10 μg/mL) | Y (MIC of 1 μg/mL to 10 μg/mL) | X (MIC of less than 1 μg/mL) | X (MIC of less than 1 μg/mL) | Y (MIC of 1 μg/mL to 10 μg/mL) | < 1 nM |  | 35 mL/min/kg |  | 
5 |  |  |  |  |  |  | Nc1nnc(SCC(=O)N[C@H]2Cc3cccc(C(=O)O)c3OB2O)s1 [Compound 5, (R)-3-(2-(5-amino-1,3,4-thiadiazol-2-ylthio)acetamido)-2-hydroxy-3,4-dihydro-2H-benzo[e][1,2]oxaborinine-8-carboxylic acid] | X (MIC of less than 1 μg/mL) | Y (MIC of 1 μg/mL to 10 μg/mL) | Y (MIC of 1 μg/mL to 10 μg/mL) | X (key: X: MIC of less than 1 μg/mL; Y: MIC of 1 μg/mL to 10 μg/mL; Z: MIC of greater than 10 μg/mL) | X (key: X: MIC of less than 1 μg/mL; Y: MIC of 1 μg/mL to 10 μg/mL; Z: MIC of greater than 10 μg/mL) | Y (MIC of 1 μg/mL to 10 μg/mL) | X (MIC of less than 1 μg/mL) | X (MIC of less than 1 μg/mL) | Y (MIC of 1 μg/mL to 10 μg/mL) |  | 28.5 mL/min/kg |  |  | 
6 |  |  |  |  |  |  | O=C(N[C@H]1Cc2cccc(C(=O)O)c2OB1O)c1cccnc1 [Compound 12, (R)-2-hydroxy-3-(nicotinamido)-3,4-dihydro-2H-benzo[e][1,2]oxaborinine-8-carboxylic acid] | Y (MIC of 1 μg/mL to 10 μg/mL) | Y (MIC of 1 μg/mL to 10 μg/mL) | X (MIC of less than 1 μg/mL) | Y (key: X: MIC of less than 1 μg/mL; Y: MIC of 1 μg/mL to 10 μg/mL; Z: MIC of greater than 10 μg/mL) | Y (key: X: MIC of less than 1 μg/mL; Y: MIC of 1 μg/mL to 10 μg/mL; Z: MIC of greater than 10 μg/mL) | Y (MIC of 1 μg/mL to 10 μg/mL) | X (MIC of less than 1 μg/mL) | X (MIC of less than 1 μg/mL) | Y (MIC of 1 μg/mL to 10 μg/mL) | < 1 nM |  | 45.7 mL/min/kg |  | 
7 | 27.3 µg/mL | NDT | NDT | 31.2 µg/mL | 1.94 µg/mL | NDT | CCCC(=O)OCOC(=O)c1cccc2c1OB(O)[C@@H](NC(=O)CSC)C2 [Compound 25, (R)-butyryloxymethyl 2-hydroxy-3-(2-(methylthio)acetamido)-3,4-dihydro-2H-benzo[e][1,2]oxaborinine-8-carboxylate] |  |  |  |  |  |  |  |  |  |  |  |  |  | 
8 | 1520 µg/mL | 920 µg/mL | 790 µg/mL | 1380 µg/mL | 1150 µg/mL | 1080 µg/mL | CCC(CC)C(=O)OCOC(=O)c1cccc2c1OB(O)[C@@H](NC(=O)CSC)C2 [Compound 26, (R)-(2-ethylbutanoyloxy)methyl 2-hydroxy-3-(2-(methylthio)acetamido)-3,4-dihydro-2H-benzo[e][1,2]oxaborinine-8-carboxylate] |  |  |  |  |  |  |  |  |  |  |  |  |  | 
9 |  |  |  |  |  |  | O=C(CSC(F)(F)F)N[C@H]1Cc2cccc(C(=O)O)c2OB1O [Compound 1, (R)-2-hydroxy-3-(2-(trifluoromethylthio)acetamido)-3,4-dihydro-2H-benzo[e][1,2]oxaborinine-8-carboxylic acid] | X (MIC of less than 1 μg/mL) | Y (MIC of 1 μg/mL to 10 μg/mL) | Y (MIC of 1 μg/mL to 10 μg/mL) |  |  | X (MIC of less than 1 μg/mL) | X (MIC of less than 1 μg/mL) | X (MIC of less than 1 μg/mL) | Y (MIC of 1 μg/mL to 10 μg/mL) | < 1 nM |  |  | Y (MIC of 1 μg/mL to 10 μg/mL) | Y (MIC of 1 μg/mL to 10 μg/mL)

Source: US9642869B2, “Boronic acid derivatives and therapeutic uses thereof” (Rempex Pharmaceuticals, Inc., priority 2013, dated 2017)
